The target in test [1] is T1, NeutrAvidin (Gallus gallus, UniProt P02701).
T1 construct: purchased Pierce
The test can be described thus: Phage-displayed cyclic peptide selection against NeutrAvidin (clone sequencing). It is filed as binding. Here is the method:
XL1-Blue E. coli containing the phagemid library vector were grown from glycerol stocks in 5 mL of 2×YT media with glucose and ampicillin selection at 37° C. Titered M13KO7 helper phage (5×10^9 pfu) was added when the culture reached an OD600 of 0.8 and was incubated for 1 hour. The culture was then pelleted via centrifugation, the cells were resuspended in 2×YT with ampicillin and kanamycin, and allowed to grow overnight. After 10 hours of incubation, the culture was again pelleted by centrifugation and the supernatant was filtered through a 0.45 μm sterile filter to remove trace E. coli. The phage was isolated from the supernatant by PEG (polyethylene glycol) precipitation. 1 mL of 20% PEG in 2.5 M NaCl was added to the 5 mL of filtered media. The resulting precipitate was isolated by centrifugation at 18,000 rcf. The phage pellet was resuspended in 5 mL of Tris Buffer A (20 mM Tris-HCl, 150 mM NaCl, and 0.05% Tween 20 at pH=7.4). The phage was then re-precipitated with 1 mL PEG/NaCl, isolated via centrifugation, and resuspended in 1 mL of Tris Buffer A.
100 μL of the phage solution was then exposed to a well of a NeutrAvidin coated polystyrene plate (Pierce) that had been previously rinsed with Tris Buffer A. After 1 hour of incubation, the phage solution was discarded and the well was washed six times for 10 minutes each with 200 μL of Tris Buffer A. Bound phage was eluted with 200 μL of 0.2 M glycine (pH=2.0) by incubation for 10 minutes, followed by neutralization with 40 μL of 2 M Tris base. The input phage and eluted phage were then used to infect two 5 mL tetracycline-selected cultures of XL1 Blue E. coli (OD600=0.8). After 1 hour, the cells were pelleted and resuspended in 5 mL of 2×YT with ampicillin and glucose. […]
Phage display selection and synthesis of NeutrAvidin binding peptides. […] The library was expressed as a fusion to the gene III protein of M13 filamentous bacteriophage, C-terminal to the periplasmic signaling sequence and N-terminal to a peptide linker and the rest of the gene III protein (see supplementary material). […]

For test [2], the target named is T1, NeutrAvidin. The test is described as follows: HABA-competitive binding determination, HABA-NeutrAvidin complex. The note with it: linear (uncyclized) peptides; read-out: dissociation constant, Neutravidin, linear peptides. The method, then: (§1) After 60 minutes, the absorbance of the complex was monitored at 500 nm. To calculate the IC50s of the selected peptides, the average of three separate trials were fitted to the Hill equation, [formula] where [L] is the total ligand concentration, [L]F is free ligand concentration, [L]B is bound ligand concentration and nH is the Hill coefficient (Hill, The possible effects of the aggregation of the molecules of haemoglobin on its dissociation curves. J Physiol 1910; 40:4-8). […] Best fit equations were calculated using KaleidaGraph (Synergy Software).

The target of another test is T2, streptavidin (Streptomyces avidinii, UniProt P22629).
T2 construct: purchased Pierce
The test can be described thus: HABA-competitive binding determination, streptavidin-HABA complex. The method, then: as §1

Test [3] has as its target T3, avidin (Gallus gallus, UniProt P02701). The test can be described thus: HABA-competitive binding determination, avidin-HABA complex. On the set-up: purchased Pierce; species or system chicken. Particulars: linear (uncyclized) peptides; read-out: dissociation constant, avidin, linear peptides. Here is the method:
as §1

Test [4] deals with T1, NeutrAvidin. The test is described as follows: HABA saturation of NeutrAvidin. The format is binding. The note with it: calculated value, supplementary material; read-out: dissociation constant of the HABA-NeutrAvidin complex. The method, then: as §1
The target in test [5] is T3, avidin. The note with it: pH of 7, literature value; read-out: Kd HABA-avidin; cited from earlier work.

Like-named read-outs stand apart in the source and are kept apart here. Where a SMILES comes first, the peptide text is derived from it. Bridges are numbered along the chain shown (N, C = ends).

T2 sequence (P22629 25-183): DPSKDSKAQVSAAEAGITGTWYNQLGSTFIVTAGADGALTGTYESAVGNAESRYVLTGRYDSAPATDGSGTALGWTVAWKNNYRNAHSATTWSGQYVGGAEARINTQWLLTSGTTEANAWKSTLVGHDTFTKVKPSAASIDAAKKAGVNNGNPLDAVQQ
T1 sequence (P02701 25-152): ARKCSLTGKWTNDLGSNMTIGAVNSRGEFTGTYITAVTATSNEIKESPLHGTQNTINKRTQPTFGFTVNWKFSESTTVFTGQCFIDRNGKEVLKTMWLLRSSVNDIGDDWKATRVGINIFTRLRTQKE
T3 sequence (P02701 25-152): as above

CDRASPWC [not synthesized]: the “% of clones, Round 3” value in the test with NeutrAvidin [1] (round 3, 15 clones sequenced) is listed as 20%. Besides, the “% of clones, Round 4” value with NeutrAvidin [1] (round 4, 26 clones sequenced) is reported as 8%. In addition, the “% of clones, Round 5” value in the test with NeutrAvidin [1] (round 5, 40 clones sequenced) worked out at 5%.

`C[C@@H]1NC(=O)[C@H](CCCNC(=N)N)NC(=O)[C@H](CC(=O)O)NC(=O)[C@@H](N)CSSC[C@@H](C(=O)NCC(N)=O)NC(=O)[C@H](Cc2ccc(O)cc2)NC(=O)[C@@H]2CCCN2C(=O)[C@H](CO)NC1=O` [DRASPY] (H-CDRASPYCG-NH2; disulfide 1-8): the Kd at NeutrAvidin [2] is less than 500 µM; on streptavidin, more than 5000 µM; at avidin [3], less than 500 µM.

With `O=C(O)c1ccccc1N=Nc1ccc(O)cc1` [HABA, 4′-hydroxyazobenzene-2-carboxylic acid], the Kd was 15 µM on NeutrAvidin [4] and 7 µM on avidin [5].

On to `C[C@@H]1NC(=O)[C@H](CCCNC(=N)N)NC(=O)[C@H](CC(=O)O)NC(=O)[C@@H](N)CSSC[C@@H](C(=O)NCC(N)=O)NC(=O)[C@H](Cc2ccc(O)cc2)NC(=O)[C@@H]2CCCN2C(=O)[C@H]([C@@H](C)O)NC1=O` [DRATPY] (H-CDRATPYCG-NH2; disulfide 1-8), for which the Kd was less than 500 µM on NeutrAvidin [2], more than 5000 µM at streptavidin and less than 500 µM on avidin [3].

As to `CC(C)C[C@@H]1NC(=O)[C@H](CC(=O)O)NC(=O)[C@@H](N)CSSC[C@@H](C(=O)NCC(N)=O)NC(=O)[C@H](Cc2c[nH]c3ccccc23)NC(=O)[C@@H]2CCCN2C(=O)[C@H](CO)NC(=O)[C@H](C)NC1=O` [DLASPW] (H-CDLASPWCG-NH2; disulfide 1-8; N-terminus assumed), on streptavidin, the Kd was more than 5000 µM.

The values above are taken from patent publication US20080032340A1, “Peptide motifs for binding avidin or neutravidin” (University of Arizona, priority 2006, published 2008).
